Laboratory results reported in PubChem BioAssay (NCI).
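Compound exposure: 48 hours, 5 concentrations, 96-well plates. Definition used: TGI = concentration required for complete inhibition of growth.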 Where a SMILES comes first, the peptide text is derived from it. The star is where a group is joined. Cbz = O=C(OCc1ccccc1)*

How the values were obtained:
Experiment in all cases: NCI-60 cell line screen, 48 h
786-0 renal = test system: 786-0 renal
CAKI-1 renal = test system: CAKI-1 renal
EKVX NSCLC = test system: EKVX NSCLC
HCT-15 colon = test system: HCT-15 colon
HOP-62 NSCLC = test system: HOP-62 NSCLC
LOX IMVI melanoma = test system: LOX IMVI melanoma
MALME-3M melanoma = test system: MALME-3M melanoma
MOLT-4 leukemia = test system: MOLT-4 leukemia
NCI-H226 lung = test system: NCI-H226 lung
OVCAR-4 ovarian = test system: OVCAR-4 ovarian
RPMI-8226 leukemia = test system: RPMI-8226 leukemia
TK-10 renal = test system: TK-10 renal
UACC-257 melanoma = test system: UACC-257 melanoma
UACC-62 melanoma = test system: UACC-62 melanoma

Row | SMILES | TGI (786-0 renal) [µM] | TGI (CAKI-1 renal) [µM] | TGI (EKVX NSCLC) [µM] | TGI (HCT-15 colon) [µM] | TGI (HOP-62 NSCLC) [µM] | TGI (LOX IMVI melanoma) [µM] | TGI (MALME-3M melanoma) [µM] | TGI (MOLT-4 leukemia) [µM] | TGI (NCI-H226 lung) [µM] | TGI (OVCAR-4 ovarian) [µM] | TGI (RPMI-8226 leukemia) [µM] | TGI (TK-10 renal) [µM] | TGI (UACC-257 melanoma) [µM] | TGI (UACC-62 melanoma) [µM]
1 | COC(=O)[C@@H](NC(=O)N(Cc1ccccc1)C[C@H](CC(C)C)NC(=O)[C@@H](NC(=O)OC(C)(C)C)C(C)C)C(C)C | > 100 | > 100 | > 100 | > 100 | > 100 | > 100 | > 100 | > 100 | > 100 | > 100 | > 100 | > 100 | > 100 | > 100
2 | C=CC1(CC[C@]2(c3ccc(OC)c(OC)c3)C=[N+]([O-])O[C@H](O[C@@H]3CCCC[C@H]3C(C)(C)c3ccccc3)C2)OCC(C)(C)CO1 | > 45.8 | > 28 | 45.5 | > 48.5 | 36.5 | 35.1 | 24.8 | 21.6 | 38 | 28.9 | 26.5 | > 67.8 | > 54.2 | 33.9
3 | CCOC(=O)CCC(NC(=O)C(Cc1ccccc1)NC(=O)OCc1ccccc1)C(=O)OCC (stereo not drawn) (Cbz-Phe-Glu(OEt)-OEt; configuration not given here) | 32 | 30.4 | 39.1 | 41.6 | 32.5 | 27.9 | 33.1 | > 71.3 | 32.6 | 32.1 | > 76 | 34.6 | 30.5 | 32.5
4 | N#Cc1cc2c(cc1Cl)Sc1nnc(Nc3ccccc3)n1S2(=O)=O | 8.49 | 3.34 | 7.95 | 5.61 | 3.36 | 3.75 | 5 | 4.06 | 5.99 | 7.79 | 9.17 | 13.3 | 3.58 | 3.58
5 | Cc1ccnc2c1C(=O)C1=C(OC(C)(C)CC1O)C2=O (stereo unspecified) | 16.4 | 19 | 18.5 | 9.97 | 13.6 | 8.91 | 3.02 | 26.9 | 21.2 | 12.8 | > 39.3 | 24.4 | 3.47 | 3.25
6 | CC(=O)OC(CCC1(C)OC1COc1ccc(CCNC(=O)C=C(C)C)cc1)C(C)(C)OC(C)=O (stereo unspecified) | > 100 | > 100 | > 100 | > 100 | > 100 | > 100 | > 100 | 39.1 | > 100 | > 100 | 60.7 | > 100 | 27.3 | > 100
7 | COc1cc2c(cc1O)NC(=O)[C@@H]1CCCN1C2=O | > 100 | > 100 | > 100 | > 100 | > 100 | > 100 | > 100 | > 100 | > 100 | > 100 | > 100 | > 100 | > 100 | > 100
8 | Cc1ccc(NC(=O)C(=O)C2C(=O)NC(=O)NC2=O)cc1C | > 100 | > 100 | > 100 | > 100 | > 100 | > 100 | > 100 | > 100 | > 100 | > 100 | > 100 | > 100 | > 100 | > 100
9 | COCn1cnc2c(=O)nc(SC)n(-c3ccccc3)c21 | > 100 | > 100 | > 100 | > 100 | > 100 | > 100 | > 100 | > 100 | > 100 | > 100 | > 100 | > 100 | > 100 | > 100
10 | O=c1[nH]c2nc3ccccc3c(=O)n2/c1=C/c1cccs1 | > 100 | > 100 | > 100 | > 100 | > 100 | > 100 | > 100 | > 100 | > 100 | > 100 | > 100 | > 100 | > 100 | > 100
11 | CC(=O)O[C@@]12CO[C@@H]1CC(O)[C@@]1(C)C(=O)[C@H](O)C3=C(C)C(O)C[C@@](O)(C(OC(=O)c4ccccc4)C12)C3(C)C (stereo partly specified) | > 100 | > 100 | > 100 | > 100 | > 100 | > 100 | > 100 | > 31.6 | > 100 | > 100 | > 100 | > 100 | > 26.8 | 3.7
12 | CCCCCCCCCCCC(=O)OC[C@@H](C[As](=O)(O)O)OC(=O)CCCCCCCCCCC | 26.5 | 23.8 | 28.8 | 24.1 | 28.8 | 18.1 | 8.84 | > 77.2 | 34.1 | 29.1 | > 68.2 | 25 | 31.7 | 6.94
13 | OC(C/C=N/N=C/CC(O)(C(F)(F)Cl)C(F)(F)Cl)(C(F)(F)Cl)C(F)(F)Cl | > 10 | > 10 | > 10 | > 10 | > 10 | > 10 | > 10 | > 10 | > 10 | > 10 | > 10 | > 10 | > 10 | > 10
14 | NCCCN(CCCN)CCc1cn(C(=O)c2ccccc2)cn1 | 25.6 | 16.1 | 23.3 | 27.1 | 23.4 | 43.5 | 33.8 | 17.9 | 26.1 | 15.3 | 10 | 20.6 | 25.2 | 23
